Assay results reported in paper PMC11571109, “Covalent Inhibitors of S100A4 Block the Formation of a Pro-Metastasis Non-Muscle Myosin 2A Complex” (Journal of Medicinal Chemistry, 2024).
Values joined by “and” are separate entries in the source; they are usually repeats but may differ in a detail not shown here. Identical values can stand only once. Like-named read-outs stand apart in the source and are kept apart here.

Assays:
S100A11-AnII = biological target: T1, S100A11-AnII (Homo sapiens, UniProt P31949); assay: HTRF (TR-FRET) peptide displacement S100A11-AnII; assay type: binding; settings: supplementary CSV
T1 construct: made in house; host or cells: E. coli Rosetta (DE3); peptide from LifeTein
T1 sequence (P31949 1-105): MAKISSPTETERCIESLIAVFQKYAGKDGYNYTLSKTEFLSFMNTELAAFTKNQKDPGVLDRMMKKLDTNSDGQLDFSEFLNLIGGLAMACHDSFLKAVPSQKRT
Protocol: Table S4: Compound IDs and SMILES … S30 […]
(§1) Peptide displacement assay development
(§2) addition of an inhibitor.
(§3) Assay was done in 384-well
(§4) After 2 hours of incubation at
(§5) concentration range to avoid the saturation of the signal.

S100A4 = S100A4 (Homo sapiens, UniProt P26447); assay: Protein labeling detection by mass spectrometry, S100A4; settings: 10 μM S100A4, 100 μM inhibitor, 1 h
S100A4-NMII [1] = biological target: T2, S100A4-NMII (Homo sapiens, UniProt P26447); assay: HTRF (TR-FRET) peptide displacement S100A4-NMII (MPN peptide); assay type: binding; design: made in house; host or cells: E. coli Rosetta (DE3); peptide from LifeTein; settings: supplementary CSV; read-out: S100A4 IC50 HTRF assay
Protocol: as §1, §2, §3, §4, §5

[2] = GSH reactivity assay (LCMS); assay type: physicochemical; settings: 1 mM glutathione (GSH) in HEPES buffer, pH 7.5; read-out: GSH t1/2 (converted)
Protocol: GSH is the most abundant low molecular weight thiol compound in the cell. It protects cells from oxidative damage and the toxicity of xenobiotic electrophiles and maintains redox homeostasis.[43] We speculated that a robust and specific reaction of inhibitors would not be drastically affected by competitive cysteines in the reaction.
50 μM of each compound was incubated at room temperature with 1 mM GSH in 50 mM HEPES, 20 mM NaCl, pH 7.5, and 1.3% DMSO. At each time point, an aliquot was taken and analyzed by LCMS. The percentage of the compound remaining was determined by comparing the area of the peaks of the compound and the GSH adduct. The natural logarithm of the results was fitted to a linear regression, and t1/2 was calculated as t1/2 = ln(2)/–slope.

HeLa = assay: Cell proliferation assay (CellTiter-Glo), HeLa; assay type: cell-based; settings: Homo sapiens, 48 h, supplementary CSV
Protocol: (§6) To further characterize the potency of the phenylproline derivatives on cancer cells, their effect on proliferation has been measured on HeLa and A549 cell lines, which are known to express S100A4.[44],[45] A cell proliferation assay was performed by cultivating cells for 48 h in complete media with various concentrations of inhibitors, up to 30 μM. At the end of the treatment, luminescence was measured after the addition of the CellTiter-Glo reagent (Figure 7A).
(§7) The day before, cells were seeded in a white, cell-culture treated 384-well plates in complete high-glucose DMEM to reach a confluency of 25% on the day of the experiment. The next day, the medium was replaced by complete, high-glucose, phenol-red-free medium, and cells were incubated for 48 h in the presence of an inhibitor or DMSO as a control. Aliquots of the supernatant were harvested, diluted 100 times in 200 mM Tris-HCl, pH 7.3, 10% glycerol, and 1% BSA buffer, and used for cyctotoxicity measurement by using the LDH-Glo cytotoxicity assay kit (Promega). In parallel, the CellTiter-Glo (Promega) reagent was added to the cells to measure cell proliferation. Both experiments were done according to the manufacturer’s recommendations, and the luminescence was quantified using the FSX plate reader (Pherastar).

A549 = assay: Cell proliferation assay (CellTiter-Glo), A549; assay type: cell-based; settings: Homo sapiens, 48 h, supplementary CSV
Protocol: as §6, §7

[3] = Cytotoxicity assay (LDH-Glo), HeLa; assay type: cell-based; settings: human, HeLa cells, supplementary CSV, read-out: HeLa Cell toxicity IC50
Protocol: as §6, §7

[4] = Cytotoxicity assay (LDH-Glo), A549; assay type: cell-based; settings: human, A549 cells, supplementary CSV, read-out: A549 Cell toxicity IC50
Protocol: as §6, §7

HeLa cells = assay: Cell migration (wound healing) assay, HeLa; assay type: cell-based; settings: 8 μM, 36 h
Protocol: We next investigated whether phenylproline derivatives would inhibit S100A4 activity by affecting cell migration. HeLa and A549 cells were challenged for a cell migration assay in the presence of phenylproline derivatives. A monolayer of cells was scratched and treated with various concentrations of inhibitors for 36 h. Cell migration was monitored automatically using the Incucyte live-cell imager by imaging cells every 2 h.
The day before the experiment, cells were seeded in a black, clear-bottom, collagen-coated 96-well plate in complete high-glucose DMEM to reach nearly full confluency the next day. On the day of the experiment, a wound in the cell layer was made, and the media were replaced with media containing phenylproline derivatives. Cells were incubated for 36 h in an Incucyte cell-imager (Sartorius, Germany), allowing for automated cell imaging every 2 h. The analysis was done by measuring the wound area using ImageJ and plugging the wound healing tool.

Log D = assay type: physicochemical
Excerpt: (§8) Selected compounds were screened for aqueous solubility in PBS (pH 7.4), metabolic stability in mouse liver microsomes (MLM) as a measure of clearance, Log D, and permeability. ADME studies reported in this work were independently performed by WuXi AppTec (Shanghai, China). Raw data are provided upon request.

[5] = Aqueous solubility in PBS (pH 7.4); assay type: physicochemical; settings: aqueous buffer; PBS pH 7.4; read-out: aq. solubility
Excerpt: as §8

[6] = Metabolic stability in mouse liver microsomes (MLM); assay type: in vitro ADME; settings: mouse liver microsomes
Excerpt: as §8

[7] = system: P-glycoprotein (P-gp, MDR1); assay: Cell permeability MDR1-MDCK II; assay type: in vitro ADME; settings: dog
Excerpt: as §8

S100A4-NMII [8] = biological target: T2, S100A4-NMII; assay: cell-based
Excerpt: First, we performed IC50 measurements of protein–protein interaction in the presence of inhibitors using NanoBret technology. Briefly, S100A4-HaloTag and NMII-NanoLuc were expressed in 293HEK cells to allow signal detection from donor (NanoLuc) and acceptor (HaLoTag) proximity upon S100A4-NMII interaction.
Assay development was done according to the NanoBRet-NanoGlo detection system manufacturer’s recommendations (Promega) by testing each combination of N- and C-termini of HaloTag and NanoLuc fusion constructs. 293HEK cells were seeded on 6-well plates in complete DMEM media and transfected 6 h later with S100A4-NanoLuc (1.8 μg) and NMII-HaloTag (0.2 μg) constructs using the JetPrime transfection reagent (Polyplus Transfection, Strasbourg, France). After an overnight incubation, cells were resuspended in phenol-red-free, 4% serum media in the presence of the HaloTag NanoBret 618 ligand or DMSO for control. […] NanoBret NanoGlo substrates were added to cells prior to reading the plate with the Pherastar FSX plate reader. The raw Nanobret ratio was calculated by dividing the acceptor emission value (618 nm) by the donor emission value (460 nm) for each sample. The mean NanoBret data were calculated by subtracting the background ratio (no acceptor control) from the sample ratio.

T2 sequence (P26447 whole entry): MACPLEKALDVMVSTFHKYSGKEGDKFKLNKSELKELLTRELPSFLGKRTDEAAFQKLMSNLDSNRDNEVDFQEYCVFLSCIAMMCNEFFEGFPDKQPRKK
Chain of S100A4 (P26447 whole entry): as above

SMILES	IC50 (S100A11-AnII) [µM]	S100A4 covalent modification pattern (in words) (S100A4)	IC50 (S100A4-NMII [1]) [µM]	also measured
CC(C)c1c(-c2ccc(OCCNC(=O)/C=C/C(=O)c3ccccc3)cc2)[nH]c2c(C#N)cnn2c1=O [2a]	3.67	multiple adduct additions	0.43	
CC(C)c1c(-c2cnn(C3CCN(C(=O)/C=C/C(=O)c4ccccc4)CC3)c2)[nH]c2c(C#N)cnn2c1=O [2b]	1.35	multiple adduct additions	0.48	
CC(C)c1c(-c2cnn(CCNC(=O)/C=C/C(=O)c3ccccc3)c2)[nH]c2c(C#N)cnn2c1=O [2c]	5.6		1.79	
O=C(CCl)Nc1ccc2c(c1)CN(CCc1cnn(-c3nccc4c(=O)[nH]cnc34)c1)CC2 [2d]	> 30		9.24	
O=C(CCl)Nc1cccc(CN(CCc2cnn(-c3nccc4c(=O)[nH]cnc34)c2)C2CCCC2)c1 [3a]	> 30		2.4	
C=CC(=O)Nc1cccc(CN(CCc2cnn(-c3nccc4c(=O)[nH]cnc34)c2)C2CCCC2)c1 [3b]	> 30		9.32	

Now from value to compound, other results behind:

IC50 (S100A11-AnII) [µM]	S100A4 covalent modification pattern (in words) (S100A4)	IC50 (S100A4-NMII [1]) [µM]	SMILES	also measured
8.15		1.73	C#CC(=O)N1CCN(CCc2cnn(-c3nccc4c(=O)[nH]cnc34)c2)CC1 [4a]	
> 30	single shifts	4.22	O=C(Nc1cccc(Cl)c1)[C@H]1C[C@H](c2ccccc2)CN1C(=O)CCl [5a]	half-life at 50 μM [2]: 9.4 h; IC50 (HeLa): 3.1 µM; IC50 (A549): 25 µM; IC50 at 48 h [3]: 55.8 µM; IC50 at 48 h [4]: 27.1 µM; wound healing (cell migration) (HeLa cells): drastically reduced wound healing; logD (Log D): 3.95; solubility [5]: 23.9 µg/mL and 63.4 µM; MLM, Cli [6]: 332 μL/min/mg protein; half-life ([6]; read-out: MLM, T1/2): 4 min; Papp ([7]; MDCK-MDR1, A to B, read-out: MDR1-MDCK II, AB Papp): 0.8 ×10⁻⁶ cm/s; Papp ([7]; MDCK-MDR1, B to A, read-out: MDR1-MDCK II, BA Papp): < 26.4 ×10⁻⁶ cm/s; IC50 (S100A4-NMII [8]): 20 µM
